Results from article PMC12621189, “Optimization of Selective and CNS Penetrant Alkyne-Based TREK Inhibitors: The Discovery and Characterization of ONO-9517601 (VU6022856) and ONO-7927846 (VU6024391)” (Journal of Medicinal Chemistry, 2025).
pIC50: −log10 of the molar value. ≈ marks a conversion by molar mass, not a printed value. Where “and” joins values, the source holds several entries; their conditions need not be identical. Identical values can stand only once. Like-named read-outs stand apart in the source and are kept apart here.

Key:
human TREK-2 (hTREK-2) = target: T1, human TREK-2 (hTREK-2) (Homo sapiens, UniProt P57789); assay: TREK-2 thallium flux assay (HEK293 cells stably expressing hTREK-2); format: cell-based; settings: human TREK-2, thallium flux; read-out: h TREK-2 Tl+ IC50
T1 construct: expressed in transfected cells
T1 sequence (P57789 1-538): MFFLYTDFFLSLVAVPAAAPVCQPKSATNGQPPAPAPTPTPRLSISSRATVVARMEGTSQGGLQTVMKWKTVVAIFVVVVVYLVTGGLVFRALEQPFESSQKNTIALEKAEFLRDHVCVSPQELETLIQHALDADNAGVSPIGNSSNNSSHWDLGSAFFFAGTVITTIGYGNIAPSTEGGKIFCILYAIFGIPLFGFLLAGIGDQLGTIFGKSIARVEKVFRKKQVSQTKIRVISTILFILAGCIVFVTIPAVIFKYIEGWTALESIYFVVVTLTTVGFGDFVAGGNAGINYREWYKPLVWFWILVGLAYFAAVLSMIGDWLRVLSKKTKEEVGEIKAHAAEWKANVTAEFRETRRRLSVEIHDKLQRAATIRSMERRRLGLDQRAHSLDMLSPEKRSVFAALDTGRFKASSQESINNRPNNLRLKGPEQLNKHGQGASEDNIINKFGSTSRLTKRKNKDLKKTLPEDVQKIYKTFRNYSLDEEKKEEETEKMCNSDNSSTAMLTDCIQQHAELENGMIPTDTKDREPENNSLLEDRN
Protocol: 0.3% DMSO - ΔRatio of 10 μM control compound)}x100
% inhibition vs compound concentration were plotted in XLfit and calculated IC50.
TREK-2 Thallium flux assay
HEK293 cells stably expressing human TREK-2 (hTREK-2) are plated in 384-well plates, cultured overnight, loaded with Thallos dye the following day. Test compounds or control compound (tert-butyl (3-((4-(benzyloxy)-2-methylphenyl)carbamoyl)-4-chlorophenyl)carbamate) or 0.3% DMSO (vehicle control) which are prepared on separate plates are added to the cell plates and incubated for 10 min, and then the cells were treated with thallium stimulus buffer to initiate […]
To measure the efficacy and potency of test compounds, the change in fluorescence intensity (ΔRatio) and % inhibition are calculated using the following equations: […]

Aqueous solubility = format: physicochemical
Nav1.5 = Nav1.5 (Homo sapiens, UniProt Q14524); assay: MPC ion channel panel, Nav1.5; format: cell-based
Chain of Nav1.5 (Q14524 whole entry): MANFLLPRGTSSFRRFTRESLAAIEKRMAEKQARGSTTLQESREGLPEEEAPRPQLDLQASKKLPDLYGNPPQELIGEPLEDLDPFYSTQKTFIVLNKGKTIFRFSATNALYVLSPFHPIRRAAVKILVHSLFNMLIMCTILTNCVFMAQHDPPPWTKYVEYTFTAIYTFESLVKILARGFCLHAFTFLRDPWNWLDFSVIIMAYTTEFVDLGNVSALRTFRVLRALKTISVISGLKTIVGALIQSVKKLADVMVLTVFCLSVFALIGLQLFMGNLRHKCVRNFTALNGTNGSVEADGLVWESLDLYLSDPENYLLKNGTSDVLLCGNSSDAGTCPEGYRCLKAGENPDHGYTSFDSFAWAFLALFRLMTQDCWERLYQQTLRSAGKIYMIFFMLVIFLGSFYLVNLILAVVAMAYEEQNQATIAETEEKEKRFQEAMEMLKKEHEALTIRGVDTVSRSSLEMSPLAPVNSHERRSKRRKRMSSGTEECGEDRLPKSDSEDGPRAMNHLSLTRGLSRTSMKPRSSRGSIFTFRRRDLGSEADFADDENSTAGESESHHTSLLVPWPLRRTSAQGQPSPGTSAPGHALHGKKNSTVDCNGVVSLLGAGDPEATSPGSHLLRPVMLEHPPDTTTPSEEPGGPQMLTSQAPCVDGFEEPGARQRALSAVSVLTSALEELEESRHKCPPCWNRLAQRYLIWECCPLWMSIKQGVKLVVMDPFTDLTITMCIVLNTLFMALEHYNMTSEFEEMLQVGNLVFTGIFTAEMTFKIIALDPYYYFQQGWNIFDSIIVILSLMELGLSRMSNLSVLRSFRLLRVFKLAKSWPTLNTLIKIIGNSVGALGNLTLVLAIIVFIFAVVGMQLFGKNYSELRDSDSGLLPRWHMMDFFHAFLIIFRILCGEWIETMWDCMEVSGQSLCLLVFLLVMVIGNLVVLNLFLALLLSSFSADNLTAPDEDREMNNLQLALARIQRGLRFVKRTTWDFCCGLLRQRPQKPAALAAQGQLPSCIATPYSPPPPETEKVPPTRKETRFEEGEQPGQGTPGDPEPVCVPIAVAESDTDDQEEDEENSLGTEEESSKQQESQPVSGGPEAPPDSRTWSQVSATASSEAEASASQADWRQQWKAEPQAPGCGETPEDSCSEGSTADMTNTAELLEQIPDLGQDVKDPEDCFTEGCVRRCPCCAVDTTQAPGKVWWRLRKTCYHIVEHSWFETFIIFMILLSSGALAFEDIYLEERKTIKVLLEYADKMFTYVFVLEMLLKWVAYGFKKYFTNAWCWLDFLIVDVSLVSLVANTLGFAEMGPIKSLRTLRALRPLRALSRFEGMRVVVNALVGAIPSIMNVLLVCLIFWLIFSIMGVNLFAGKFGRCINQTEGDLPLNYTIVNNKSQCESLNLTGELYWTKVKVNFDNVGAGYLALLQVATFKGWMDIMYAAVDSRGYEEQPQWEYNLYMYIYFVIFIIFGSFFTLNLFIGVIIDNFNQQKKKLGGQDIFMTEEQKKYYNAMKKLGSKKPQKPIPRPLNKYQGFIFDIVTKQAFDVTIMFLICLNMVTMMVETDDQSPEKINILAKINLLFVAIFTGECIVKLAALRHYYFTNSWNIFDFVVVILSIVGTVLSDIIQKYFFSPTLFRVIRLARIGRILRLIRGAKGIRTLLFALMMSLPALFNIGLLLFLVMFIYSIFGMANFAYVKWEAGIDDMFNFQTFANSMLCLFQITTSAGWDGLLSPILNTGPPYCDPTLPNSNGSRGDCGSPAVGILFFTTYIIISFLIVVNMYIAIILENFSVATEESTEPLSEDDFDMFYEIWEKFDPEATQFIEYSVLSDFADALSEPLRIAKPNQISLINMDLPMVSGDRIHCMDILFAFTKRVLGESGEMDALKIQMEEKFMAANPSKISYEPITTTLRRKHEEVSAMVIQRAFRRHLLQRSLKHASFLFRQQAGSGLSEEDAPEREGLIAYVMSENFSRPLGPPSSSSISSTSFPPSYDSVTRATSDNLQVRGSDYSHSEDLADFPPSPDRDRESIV

rat TREK-1 = target: T2, rat TREK-1 (Rattus norvegicus, UniProt Q920B6); assay: rat TREK-1 manual patch clamp; format: cell-based; settings: read-out: TREK-1 IC50 (rat, MPC)
T2 sequence (Q920B6 1-426): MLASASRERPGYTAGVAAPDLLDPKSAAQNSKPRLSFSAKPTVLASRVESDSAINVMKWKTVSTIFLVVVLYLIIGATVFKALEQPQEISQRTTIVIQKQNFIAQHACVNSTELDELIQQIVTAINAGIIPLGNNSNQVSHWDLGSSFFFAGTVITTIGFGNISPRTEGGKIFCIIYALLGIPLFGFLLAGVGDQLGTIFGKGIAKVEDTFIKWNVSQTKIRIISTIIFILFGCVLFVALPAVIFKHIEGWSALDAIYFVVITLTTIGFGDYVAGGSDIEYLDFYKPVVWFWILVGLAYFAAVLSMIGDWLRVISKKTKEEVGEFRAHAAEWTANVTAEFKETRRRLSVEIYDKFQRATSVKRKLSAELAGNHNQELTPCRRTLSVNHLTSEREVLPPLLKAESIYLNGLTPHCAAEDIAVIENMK

KCNQ1/E1 = KCNQ1/E1 (Homo sapiens, UniProt P51787); assay: MPC ion channel panel, KCNQ1/E1; format: cell-based
[1] = Brain homogenate binding, rat; format: in vitro ADME; settings: bound
Protocol: concentration), which was aliquoted in triplicate to the ‘bottom half’ of the prepared HTD plate wells. The HTD plate was sealed and incubated for 6 hours at 37 °C. Following incubation, each well (both top and bottom halves) were transferred (20 µL) to the corresponding wells of a 96-shallow-well (V-bottom) plate. The daughter plates were then matrix-matched (DPBS side wells received equal volume of plasma, and plasma side wells received equal volume of DPBS), and extraction solution (120 µL; acetonitrile containing 50 nM carbamazepine as IS) was added to all wells of both daughter plates to precipitate protein and extract test article. […]
The unbound fraction (f u) was calculated following the equation below, and mean values for each species were calculated from 3 replicates.
A similar approach was used to determine the degree of brain homogenate binding, which employed the same methodology and procedure with the following modifications: 1) a final compound concentration of 1 μM was used, 2) naïve rat brains were homogenized in DPBS (1:3 composition of brain: DPBS, w/w) using a Mini-Bead Beater™ machine in order to obtain brain homogenate, which was then treated in the same manner as the plasma samples in the previously described plasma protein binding assay. Fraction unbound for both plasma and brain samples was determined using Equation 4. […]

MK-801 challenged rat = assay: MK-801 challenge novel object recognition (NOR), rat; format: in vivo; settings: for Minimum effective dose (MED), MK-801 challenge NOR: PO, MK-801 0.2 mg/kg IP; for reversal of the MK-801 deficit in NOR: oral, 10 at 1, 3 mg/kg, 11 at 0.3, 1 mg/kg
[2] = IV/PO pharmacokinetic study, NHP (cyno); format: in vivo; settings: for clearance / Vd / half-life / Cmax: cynomolgus monkey, plasma; for clearance / Vd / half-life: iv 1 mg/kg; for clearance: read-out: CLp; for Vd: read-out: Vss; for half-life: read-out: elimination t1/2 (converted); for Cmax / F (%) po: po 1 mg/kg
[3] = Embryo fetal developmental toxicity in vivo

| SMILES | pIC50 (human TREK-2 (hTREK-2)) | solubility (Aqueous solubility) [µM] | inhibition at 10 µM (Nav1.5) [%] | pIC50 (rat TREK-1) | inhibition at 10 µM (KCNQ1/E1) [%] | BHB rat [1] | Minimum effective dose (MED), MK-801 challenge NOR (MK-801 challenged rat) [mg/kg] | reversal of the MK-801 deficit in NOR (MK-801 challenged rat) | clearance [2] [mL/min/kg] | Vd [2] [L/kg] | half-life [2] [h] | Cmax [2] [ng/mL] | F (%) po [2] [%] | embryo fetal developmental toxicity [3] | embryo fetal developmental toxicity ([3]; listed as ONO-9517601) | embryo fetal developmental toxicity ([3]; listed as ONO-7927846) |
| --- | --- | --- | --- | --- | --- | --- | --- | --- | --- | --- | --- | --- | --- | --- | --- | --- |
| CC(=O)N1CCC(n2ncc(Cl)c2C(=O)Nc2ncc(C#Cc3ccccc3)cc2C)CC1 [Compound 10, 1-(1-Acetylpiperidin-4-yl)-4-chloro-N-(3-methyl-5-(phenylethynyl)pyridin-2-yl)-1H-pyrazole-5-carboxamide] | 6.64 | 31 (≈ 14.3 µg/mL) | ≤ 50 | 7.06 | ≤ 50 | 99.5% and 99.5, 99.5% | 1 | significantly reversed the MK-801 deficit | 13.3 | 2.1 | 3.3 | 152 | 34 | positive | positive signal |  |
| CC(=O)N1CC[C@@H](n2ncc(Cl)c2C(=O)Nc2ncc(C#Cc3ccc(F)cc3)cc2C)[C@H](F)C1 [Compound 11, 1-((3R,4R)-1-Acetyl-3-fluoropiperidin-4-yl)-4-chloro-N-(5-((4-fluorophenyl)ethynyl)-3-methylpyridin-2-yl)-1H-pyrazole-5-carboxamide] | 6.54 | 14 (≈ 6.97 µg/mL) | ≤ 50 | 6.70 | 60 | 99.4% | 0.3 | significantly reversed the MK-801 deficit | 6.5 | 4.4 | 9.3 | 260 | 89 | positive |  | positive signal |
